SMILES strings stand for the structures. pIC50: −log10 of the molar value. Some results are limits rather than exact numbers.

Format in all cases: cell-based
The test system of one assay is H1975 cells. Put plainly: In vitro tumor cell proliferation assay (Cell Titer-Glo) in H1975 cells. As to conditions: NCI-H1975; H1975 human NSCLC expressing mutant HER1 (L858R,T790M); 72 hours exposure; read-out: IC50, activities in H 1975 cell lines. An excerpt: The tumor cell proliferation assay used to test the compounds of the present invention involves a readout called Cell Titer-Glow® Luminescent Cell Viability Assay developed by Promega® (Cunningham, BA “A Growing Issue: Cell Proliferation Assays, Modern kits ease quantification of cell growth” The Scientist 2001, 15(13), 26, and Crouch, S P et al., “The use of ATP bioluminescence as a measure of cell proliferation and cytotoxicity” Journal of Immunological Methods 1993, 160, 81-88), that measures inhibition of cell proliferation. Generation of a luminescent signal corresponds to the amount of ATP present, which is directly proportional to the number of metabolically active (proliferating) cells.
H1975 cells [human non small cell lung carcinoma, ATCC # CRL-5908, expressing mutant HER1 [(EGFR, ErbB1)(L858R,T790M] were plated at a density of 3×10^3 cells/well in 96 well black-clear bottom tissue culture plates in RPMI media with 10% Fetal Bovine Serum and incubated at 37° C. Twenty-four hours later, test compounds are added at a final concentration range from as high 10 uM to as low 64 pM depending on the activities of the tested compounds in serial dilutions at a final DMSO concentration of 0.1%. Cells were incubated for 72 hours at 37° C. in complete growth media after addition of the test compound. After 72 hours of drug exposure, the plates were equilibrated to room temperature for approximately 30 min. Then, using a Promega Cell Titer Glo Luminescent® assay kit, lysis buffer containing 100 microliters of the enzyme luciferase and its substrate, luciferin mixture, was added to each well. The plates were mixed for 2 min on orbital shaker to ensure cell lysis and incubated for 10 min at room temperature to stabilize luminescence signal. The samples were read on VICTOR2 using Luminescence protocol, and analyzed with Analyze5 software to generate IC50 values.
On the technique in general: ATP-based viability assays read luminescence as a measure of living cells.

Another assay relates to A431 cells. Put plainly: In vitro tumor cell proliferation assay (Cell Titer-Glo) in A431 cells. As to conditions: Homo sapiens, A-431, 72 h, A431 human epidermoid carcinoma overexpressing HER1; 72 hours exposure; read-out: IC50, activities in A431 cell lines. An excerpt:
(§1) The tumor cell proliferation assay used to test the compounds of the present invention involves a readout called Cell Titer-Glow® Luminescent Cell Viability Assay developed by Promega® (Cunningham, BA “A Growing Issue: Cell Proliferation Assays, Modern kits ease quantification of cell growth” The Scientist 2001, 15(13), 26, and Crouch, S P et al., “The use of ATP bioluminescence as a measure of cell proliferation and cytotoxicity” Journal of Immunological Methods 1993, 160, 81-88), that measures inhibition of cell proliferation. Generation of a luminescent signal corresponds to the amount of ATP present, which is directly proportional to the number of metabolically active (proliferating) cells. A431 cells [human epidermoid carcinoma, ATCC # HTB-20, overexpressing HER1 (EGFR, ErbB1)] and N87 [human gastric carcinoma, ATCC # CRL-1555, overexpressing HER2 (ErbB2) and HER1 (EGFR, ErbB1)] were plated at a density of 2.5×10^3 cells/well in 96 well black-clear bottom tissue culture plates in RPMI media with 10% Fetal Bovine Serum and incubated at 37° C. Twenty-four hours later, test compounds are added at a final concentration range from as high 100 μm to as low […] depend on the activities of the tested compounds in serial dilutions at a final DMSO concentration of 0.1%. Cells were incubated for 72 hours at 37° C. in complete growth media after addition of the test compound. After 72 hours of drug exposure, the plates were equilibrated to room temperature for approximately 30 min. Then, using a Promega Cell Titer Glo Luminescent® assay kit, lysis buffer containing 100 microliters of the enzyme luciferase and its substrate, luciferin mixture, was added to each well. The plates were mixed for 2 min on orbital shaker to ensure cell lysis and incubated for 10 min at room temperature to stabilize luminescence signal. The samples were read on VICTOR2 using Luminescence protocol, and analyzed with Analyze5 software to generate IC50 values.

A further assay deals with N87. Briefly: In vitro tumor cell proliferation assay (Cell Titer-Glo) in N87 cells. To be noted: N87 human gastric carcinoma overexpressing HER2 and HER1; 72 hours exposure; read-out: IC50, activities in N87 cell lines.
Text: as §1

The term pIC50 denotes the IC50 on a negative log10 scale, so that one unit is a factor of ten. Regarding `O=C(/C=C/CN1CCOCC1)N1CCc2c(sc3ncnc(Nc4ccc(OCc5cnccn5)c(Cl)c4)c23)C1` [Example 80, N-[3-chloro-4-(pyrazin-2-ylmethoxy)phenyl]-7-[(2E)-4-morpholin-4-ylbut-2-enoyl]-5,6,7,8-tetrahydropyrido [4′3′:4,5]thieno[2,3-d]pyrimidin-4-amine], the pIC50 in the assay with H1975 cells was 5.00 to 6.00; with A431 cells, 5.00 to 6.00; with N87, > 6.70.
For `CCN(CC)C/C=C/C(=O)N1CCc2c(sc3ncnc(Nc4ccc(OCc5cccc(F)c5)c(Cl)c4)c23)C1` [Example 13, N-{3-chloro-4-[(3-fluorobenzyl)oxy]phenyl}-7-[(2E)-4-(diethylamino)but-2-enoyl]-5,6,7,8-tetrahydropyrido[4′,3′:4,5]thieno[2,3-d]pyrimidin-4-amine], the pIC50 in the assay on H1975 cells was 5.00 to 6.00; with A431 cells it was > 6.70; in the assay with N87, > 6.70.
As for `O=C(/C=C/CN1CCOCC1)N1CCc2c(sc3ncnc(Nc4ccc5c(ccn5Cc5cccc(F)c5)c4)c23)C1` [Example 108, N-[1-(3-fluorobenzyl)-1H-indol-5-yl]-7-[(2E)-4-morpholin-4-ylbut-2-enoyl]-5,6,7,8-tetrahydropyrido [4′,3′:4,5]thieno[2,3-d]pyrimidin-4-amine], the pIC50 was 6.00 to 6.70 with H1975 cells, > 6.70 in the assay on A431 cells and > 6.70 in the assay on N87.
`O=C(/C=C/CN1CCSCC1)N1CCc2c(sc3ncnc(Nc4ccc(F)c(Cl)c4)c23)C1` [Example 42, N-(3-chloro-4-fluorophenyl)-7-[(2E)-4-thiomorpholin-4-ylbut-2-enoyl]-5,6,7,8-tetrahydropyrido [4′,3′:4,5]thieno[2,3-d]pyrimidin-4-amine]: the figures for the pIC50 in the assay with H1975 cells, with A431 cells and with N87 were 5.00 to 6.00, 5.00 to 6.00 and > 6.70, respectively.
As to `Cc1ccc(F)cc1Nc1ncnc2sc3c(c12)CCN(C(=O)/C=C/CN(C)C)C3` [Example 166, 7-[(2E)-4-(dimethylamino)but-2-enoyl]-N-(5-fluoro-2-methylphenyl)-5,6,7,8-tetrahydropyrido [4′,3′:4,5]thieno[2,3-d]pyrimidin-4-amine], the pIC50 with H1975 cells is 5.00 to 6.00; with A431 cells it was 5.00 to 6.00; in the assay on N87, 5.30 to 6.70.
Take `CCN(CC)C/C=C/C(=O)N1CCc2c(sc3ncnc(Nc4ccc(OCc5cccnc5)c(Cl)c4)c23)C1` [Example 86, N-[3-chloro-4-(pyridin-3-ylmethoxy)phenyl]-7-[(2E)-4-(diethylamino)but-2-enoyl]-5,6,7,8-tetrahydropyrido [4′,3′:4,5]thieno[2,3-d]pyrimidin-4-amine]: the pIC50 was 6.00 to 6.70 in the assay with H1975 cells, 5.00 to 6.00 in the assay on A431 cells and > 6.70 in the assay with N87.
The like results for `CCN(C/C=C/C(=O)N1CCc2c(sc3ncnc(Nc4ccc(OCc5ccccn5)c(Cl)c4)c23)C1)C(C)C` [Example 70, N-[3-chloro-4-(pyridin-2-ylmethoxy)phenyl]-7-{(2E)-4-[ethyl(isopropyl)amino]but-2-enoyl}-5,6,7,8-tetrahydropyrido [4′,3′:4,5]thieno[2,3-d]pyrimidin-4-amine] were, in that order, > 6.70, 5.00 to 6.00 and > 6.70.
In the case of `O=C(/C=C/CN1CCCC1)N1CCc2c(sc3ncnc(Nc4ccc(OCc5ccccn5)c(Cl)c4)c23)C1` [Example 24, N-[3-chloro-4-(pyridin-2-ylmelhoxy)phenyl]-7-[(2E)-4-pyrrolidin-1-ylbut-2-enoyl]-5,6,7,8-tetrahydropyrido [4′,3′:4,5]thieno[2,3-d]pyrimidin-4-amine], the pIC50 is > 6.70 in the assay on H1975 cells, 6.00 to 6.70 in the assay with A431 cells and > 6.70 in the assay on N87.
As for `CCN(CC)C/C=C/C(=O)N1CCc2c(sc3ncnc(Nc4ccc5c(cnn5Cc5ccccc5)c4)c23)C1` [Example 95, N-(1-benzyl-1H-indazol-5-yl)-7-[(2E)-4-(diethylamino)but-2-enoyl]-5,6,7,8-tetrahydropyrido [4′,3′:4,5]thieno[2,3-d]pyrimidin-4-amine], the pIC50 in the assay with H1975 cells is 6.00 to 6.70; with A431 cells it was 6.00 to 6.70; with N87, > 6.70.
